The source made the active and inactive calls. No cut-off for these calls is given here.
Tests used:
HCT-116 [1] = assay: Antiproliferative activity against human HCT116 cells expressing Kinesin-like protein KIF11 D130V mutant after 72 hrs by Cell titer Glo assay; type: functional, cell-based; details: HCT-116, 72 h
HCT-116 [2] = assay: Antiproliferative activity against 3x IC95 biaryl selected drug-resistant against human HCT116 cells after 72 hrs by Cell titer Glo assay; type: functional, cell-based; details: HCT-116, 72 h
HCT-116 [3] = assay: Antiproliferative activity against IC95 biaryl selected human HCT116 cells expressing Kinesin-like protein KIF11 D130V mutant after 72 hrs by Cell titer Glo assay; type: functional, cell-based; details: HCT-116, 72 h
HCT-116 [4] = assay: Antiproliferative activity against human HCT116 cells after 72 hrs by Cell titer Glo assay; type: functional, cell-based; details: HCT-116, 72 h
HCT-116 [5] = assay: Antiproliferative activity against IC50 biaryl selected human HCT116 cells expressing Kinesin-like protein KIF11 D130V mutant after 72 hrs by Cell titer Glo assay; type: functional, cell-based; details: HCT-116, 72 h
HCT-116 [6] = assay: Antiproliferative activity against IC95 biaryl selected drug-resistant against human HCT116 cells after 72 hrs by Cell titer Glo assay; type: functional, cell-based; details: HCT-116, 72 h
HCT-116 [7] = assay: Antiproliferative activity against IC50 biaryl selected drug-resistant against human HCT116 cells after 72 hrs by Cell titer Glo assay; type: functional, cell-based; details: HCT-116, 72 h
HCT-116 [8] = assay: Antiproliferative activity against 3x IC95 biaryl selected human HCT116 cells expressing Kinesin-like protein KIF11 D130V mutant after 72 hrs by Cell titer Glo assay; type: functional, cell-based; details: HCT-116, 72 h
[9] = target: T1, Kinesin-like protein KIF11 (Homo sapiens, UniProt P52732); assay: Inhibition of human wild type Eg5 using varying ATP levels in presence of saturating levels of microtubule by Lineweaver-Burke plot
T1 sequence (P52732 whole entry): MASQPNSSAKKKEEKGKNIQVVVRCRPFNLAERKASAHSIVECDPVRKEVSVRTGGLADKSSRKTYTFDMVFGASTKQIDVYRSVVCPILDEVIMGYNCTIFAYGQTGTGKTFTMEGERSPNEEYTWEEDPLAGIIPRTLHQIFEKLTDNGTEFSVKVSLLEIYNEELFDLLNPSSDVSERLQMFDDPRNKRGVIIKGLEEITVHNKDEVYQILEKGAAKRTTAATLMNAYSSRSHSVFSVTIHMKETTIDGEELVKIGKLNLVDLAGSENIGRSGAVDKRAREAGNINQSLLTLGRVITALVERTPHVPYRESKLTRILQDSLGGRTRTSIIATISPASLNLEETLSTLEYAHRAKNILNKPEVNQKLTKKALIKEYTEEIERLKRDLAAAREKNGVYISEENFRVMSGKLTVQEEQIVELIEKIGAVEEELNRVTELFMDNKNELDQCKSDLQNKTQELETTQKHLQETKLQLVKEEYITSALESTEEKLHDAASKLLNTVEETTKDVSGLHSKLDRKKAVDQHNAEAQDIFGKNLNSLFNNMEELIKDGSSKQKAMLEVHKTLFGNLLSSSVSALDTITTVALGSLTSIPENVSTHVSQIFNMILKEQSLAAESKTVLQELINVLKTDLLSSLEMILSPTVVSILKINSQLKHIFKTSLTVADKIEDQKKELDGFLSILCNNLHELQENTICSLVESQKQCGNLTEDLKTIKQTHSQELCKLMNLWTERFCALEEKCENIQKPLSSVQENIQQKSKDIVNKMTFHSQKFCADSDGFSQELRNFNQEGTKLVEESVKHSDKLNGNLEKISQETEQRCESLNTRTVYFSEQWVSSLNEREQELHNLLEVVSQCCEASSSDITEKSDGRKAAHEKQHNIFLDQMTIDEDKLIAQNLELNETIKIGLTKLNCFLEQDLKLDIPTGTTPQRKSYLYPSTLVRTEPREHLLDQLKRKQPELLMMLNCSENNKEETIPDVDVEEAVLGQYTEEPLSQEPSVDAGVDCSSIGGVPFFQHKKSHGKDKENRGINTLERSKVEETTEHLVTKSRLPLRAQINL

[10] = target: T2, Kinesin-like protein KIF11 (Homo sapiens) (UniProt P52732); assay: Binding affinity to human KSP assessed as photoaffinity labeling at Leu295 residue at 240 uM by photo affinity labeling study
T2 sequence (whole entry): T1 sequence (P52732 whole entry)

Row | IC50 (HCT-116 [1]) [nM] | IC50 (HCT-116 [2]) [nM] | IC50 (HCT-116 [3]) [nM] | IC50 (HCT-116 [4]) [nM] | IC50 (HCT-116 [5]) [nM] | IC50 (HCT-116 [6]) [nM] | IC50 (HCT-116 [7]) [nM] | IC50 (HCT-116 [8]) [nM] | Ki [9] [nM] | Activity [10] | SMILES
1 | 903 | 22 | 675 | 0.46 | 1190 | 1 | 0.72 | 87.3 | – | – | Cc1ccc(C(=O)N(CCCN)[C@@H](c2nc3cc(Cl)ccc3c(=O)n2Cc2ccccc2)C(C)C)cc1F
2 | – | – | – | – | – | – | – | – | 330 | Active | NC(=O)Nc1ccc(-c2ccc(C3(C(F)(F)F)N=N3)cc2)cc1
3 | 0.23 | 8.7 | 0.59 | 0.3 | 0.2 | 0.18 | 0.31 | 0.35 | – | – | CC(=O)O[C@@]12CO[C@@H]1C[C@H](O)[C@@]1(C)C(=O)[C@H](O)C3=C(C)[C@@H](OC(=O)[C@H](O)[C@@H](NC(=O)OC(C)(C)C)c4ccccc4)C[C@@](O)([C@@H](OC(=O)c4ccccc4)[C@H]21)C3(C)C [DOCETAXEL]
